Source: patent US20260364138A1, “ENRICHED ASPARAGUS RACEMOSUS ROOT COMPOSITION AND PROCESS FOR PREPARATION THEREOF” (LAILA NUTRA PRIVATE LIMITED, priority 2023, published 2026)

Columns and labels:
[1] = system: Cyclophosphamide-induced primary ovarian insufficiency in Sprague Dawley rats; experiment: Cyclophosphamide-induced primary ovarian insufficiency in female Sprague Dawley rats, total follicular count; conditions: rat, in vivo
Experimental: Evaluation of Asparagus racemosus enriched extract compositions supplementation on total follicular count of female Sprague Dawley rats: Ovarian follicles contain oocytes and surrounded by granulosa cells. Four different types of follicles are observed in ovaries based on their development stages: primordial, primary, secondary, and tertiary (antral). The number of primordial follicles, which is the true ovarian reserve, is determined in the fetus and declines throughout life. However, the primordial follicles cannot be visualized by ultrasound due to their small size (<0.05 mm diameter). The antral or Graafian follicles are more easily identifiable by ultrasound when they reach 2 mm in diameter. It is recommended that a follicular count needs to be performed in the early follicular phase of the menstrual cycle. However, considering the intracycle fluctuation of ovarian reserve, a follicular count may be performed at any point in the menstrual cycle. […]
Example 28: In-vivo efficacy of AR-1 and Comp-1 in mitigating Cyclophosphamide-induced primary ovarian insufficiency in Sprague Dawley rats. […] Twenty randomly selected fields were analysed for primordial, primary, antral, […], and atretic follicles, and the average of total number of follicles present in each tissue section was calculated.

[2] = system: estrogen receptor alpha phosphorylated at Serine 118 position (pER-α); experiment: Evaluation of estrogen-receptor alpha (ER-α) phosphorylation by Western blot assay (normalized pER-α expression) in MCF-7 cells; assay type: cell-based, Human; conditions: 0.2 μg/mL, MCF-7, 4 h; for pER-α expression (normalized): Table 3 (vehicle control 0.28); for activation at 0.2 µg/mL: Homo sapiens, MCF7, read-out: % increase of pER-α (from vehicle control)
Experimental: The four compounds of Asparagus racemosus root Shatavarin I, dehydroshatavarin I, shatavarin IV, and shatavarin IX, and their combinations were evaluated for their ability to enhance the pER-α (estrogen receptor alpha phosphorylated at Serine 118 position) expression in a human breast tumor cell line, MCF-7, and the results are presented in Table 3. pER-α represents the active form of the hormone receptor.
Human MCF-7 cells (ATCC Cat #HTB-22; 5×10^5 cells/well in 3 mL) were seeded in 6-well cell culture plates and maintained in DMEM medium containing 10% FBS at 37 °C in a humidified atmosphere of 5% CO2. After 48 hours of seeding, cells were washed twice with serum-free DMEM medium (without phenol red) and maintained in the same media for another 24 hours. Cells were treated with different test samples (0.2 μg/mL) in serum-free DMEM medium and incubated for 4 hours at 37 °C in a CO2 incubator. The untreated cells served as a vehicle control.
Western blot: After the incubation, cell culture plates were placed on an ice tray and washed twice with cold 1×PBS. Eighty microliters of lysis buffer (10 mM Tris-HCl pH 7.4, 150 mM NaCl, 1 mM EDTA, 1 mM [COMPOUND LEFT OUT], 10 μg/mL Aprotinin, 10 μg/mL Leupeptin, 1% Triton X-100, 1 mM NaF, 1 mM Na3VO4, 0.5% Sodium deoxycholate, and 1 μM Pepstatin) was added to each well and sonicated for 30 seconds. Following homogenization, samples were centrifuged at 16128×g for 10 minutes at 4 °C to sediment unbroken cells and nuclei. Supernatant was collected, and protein was quantified using a Pierce BCA protein assay kit (Thermo Scientific Cat #23225). SDS-PAGE was performed for the protein samples, and resolved proteins were transferred onto nitrocellulose membrane using the wet blotting method. Briefly, 10 μg of protein was loaded onto acrylamide gel (7.5% resolving) and ran at 100V for approximately 1 hour 40 minutes. At the end of the run, proteins were transferred to the nitrocellulose membrane by placing transfer system at 4 °C chamber (100V for 2 hours). After the transfer, the membrane was washed in 0.1M Tris-buffered saline containing 0.05% Tween20 (TBST) and blocked in Superblock blocking buffer (Thermo Scientific Cat #37535) with constant agitation for 30 minutes. The membrane was incubated with primary antibodies recognizing phospho-ER-α (Phosphorylation site: Ser118) in TBST for 16 hours at 4 °C with agitation. The membrane was washed three times and incubated with peroxidase affiniPure goat anti-rabbit secondary antibody (Jackson ImmunoResearch Cat #111-035-045; 1:10000 dilution) for 1 hour at room temperature with agitation, followed by three times of washing in TBST for 5 minutes each. Immunoreactive bands were detected using a chemiluminescent substrate (Thermo Scientific Cat #34080) and images were captured using Bio-Rad Molecular imager (Model: ChemiDOC MP). Membrane was stripped of the phospho-ER-α antibody and re-probed with […] antibody (Sigma Chemical Co., USA; 1:10000 dilution) by incubating at room temperature for 2 hours and images were captured. The intensities of phospho-ER-α and actin protein bands were calculated using Carestream MI software and normalized. The normalized pER-α expression (in arbitrary units) was measured using the following formula: […]

[3] = system: Letrozole-induced PCOS in female Sprague Dawley rats; experiment: Oral glucose tolerance test (OGTT) in letrozole-induced PCOS rats; assay type: in vivo; conditions: mean ± SD, n = 7, 20 mg/kg daily days 22-48 after letrozole induction, letrozole group 1 mg/kg without test item, day 49
Text: Evaluation of Asparagus racemosus synergistic enriched extract compositions (comp-26, comp-27, comp-28 and 90% aqueous ethanol extract (AR-2) supplementation in letrozole-induced PCOS in female Sprague Dawley rats: Oral glucose tolerance test (OGTT): OGTT measures circulatory glucose levels following glucose ingestion, and this test is widely used as an indicator of insulin resistance. PCOS is known to cause metabolic dysfunctions, including insulin resistance. Letrozole-induced rats show impaired glucose tolerance and increased blood glucose in circulation, which closely mimics the clinical features of glucose intolerance or insulin resistance in PCOS.
Area Under the Curve (AUC) was calculated using serum glucose concentration Vs. time (in min). The AUC value was increased in letrozole-induced (G2) rats when compared with the Vehicle control (G1) rats, indicating impaired glucose tolerance or increased insulin resistance.
(§1) Following a 7-day acclimatization period, female Sprague Dawley rats (age: 10-12 weeks, body weight 250-300 g) were randomly assigned to six groups (n=7): vehicle control (G1), Letrozole (G2; 1 mg/kg), AR-2 (G3; 20 mg/kg), Comp-26 (G4; 20 mg/kg), Comp-27 (G5; 20 mg/kg), and Comp-28 (G6; 20 mg/kg).
The study was performed in two phases i.e., the induction and supplementation phases. […]

[4] = system: Letrozole-induced PCOS in female Sprague Dawley rats; experiment: Serum testosterone in letrozole-induced PCOS rats; assay type: in vivo; conditions: mean ± SD, n = 7; 20 mg/kg daily after letrozole induction; letrozole group 1 mg/kg; day 48
Experimental: as §1
(§2) The study was performed in two phases i.e., the induction and supplementation phases. In the induction phase, all the animals, except for G1, were gavaged with letrozole to induce PCOS for 21 days. In the supplementation phase (from days 22 to 48), all rats were supplemented once daily with either the vehicle or one of the test items. An oral glucose tolerance test (OGTT) was performed on day 49 in overnight fasted rats. Blood samples were collected on day 48. The serum was separated by centrifuging the blood samples at 3200×g for 15 minutes at 4 °C and stored at −80 °C in aliquots for biomarker analysis. On day 50, all rats were euthanized using CO2 asphyxiation, and their ovaries were collected. The ovaries were fixed in 10% normal buffered formalin for histopathology examination. The fixed tissues were paraffin-embedded, sectioned (5-7 μm) using a microtome, and stained with hematoxylin-eosin following the standard protocols. The stained tissue sections were examined at 10× magnification under a light microscope (Carl Zeiss, Germany).

[5] = system: Letrozole-induced PCOS in female Sprague Dawley rats; experiment: Serum 17β-estradiol in letrozole-induced PCOS rats; assay type: in vivo; conditions: mean ± SD, n = 7; 20 mg/kg daily after letrozole induction; letrozole group 1 mg/kg; day 48
Experimental: as §1, §2

Row | Compound | pER-α expression (normalized) [2] | activation at 0.2 µg/mL ([2]; markers, Table 3) | also measured
1 | O=P1(N(CCCl)CCCl)NCCCO1 (stereo not shown) [Cyclophosphamide] | – | – | Average total follicular count [1]: 5.63 per section
2 | CC1CCC2(OC1)OC1CC3C4CCC5CC(OC6OC(CO)C(OC7OC(CO)C(O)C(O)C7O)C(O)C6OC6OC(CO)C(O)C(O)C6O)CCC5(C)C4CCC3(C)C1C2C (stereo not shown) [Shatavarin IX] | 0.38 arbitrary units | 35.7% | –
3 | N#Cc1ccc(C(c2ccc(C#N)cc2)n2cncn2)cc1 [Letrozole] | – | – | AUC (serum glucose, OGTT) [3]: 21030 ± 4007 mg/dL/min; AUC (serum glucose, OGTT) ([3]; listed as letrozole): increased; Testosterone concentration (serum) [4]: 3.18 ± 1.16 pg/mL; 17β-Estradiol concentration (serum) [5]: 32.97 ± 13.89 pg/mL
4 | CC(CCC1(O)OC2CC3C4CCC5CC(OC6OC(CO)C(OC7OC(C)C(O)C(O)C7O)C(O)C6OC6OC(CO)C(O)C(O)C6O)CCC5(C)C4CCC3(C)C2C1C)COC1OC(CO)C(O)C(O)C1O (stereo not shown) [Shatavarin I] | 0.34 arbitrary units | 21.4% | –
5 | dehydroshatavarin I | 0.45 arbitrary units | – | % increase of pER-α (from vehicle control) ([2]; markers, Table 3): 60.71%
6 | CC1CCC2(OC1)OC1CC3C4CCC5CC(OC6OC(CO)C(OC7OC(C)C(O)C(O)C7O)C(O)C6OC6OC(CO)C(O)C(O)C6O)CCC5(C)C4CCC3(C)C1C2C (stereo not shown) [Shatavarin IV] | 0.40 arbitrary units | 42.9% | –
